Assay results from ChEMBL document CHEMBL5154751, “Intramolecular Interactions Enhance the Potency of Gallinamide A Analogues against Trypanosoma cruzi” (J Med Chem, 2022).
pEC50, pIC50: −log10 of the molar value.

Columns and labels:
[1] = Cytotoxicity against mouse C2C12 cells assessed as lethal dose; assay type: toxicity, cell-based; conditions: read-out: LD50 (the source's name)
[2] = system: Trypanosoma cruzi; experiment: Antitrypanosomal activity against amastigotes form of Trypanosoma cruzi CA-I/72 infected in mouse C2C12 cells assessed as parasite infection level by DAPI staining based microscopic analysis; assay type: functional, organism-based; conditions: CA-I/72, C2C12
[3] = biological target: Cruzipain (Trypanosoma cruzi, UniProt P25779); experiment: Inhibition of Trypanosoma cruzi cruzain using Z-FR-AMC as substrate preincubated for 10 mins followed by substrate addition by fluorimetric analysis
Chain of Cruzipain (P25779 whole entry): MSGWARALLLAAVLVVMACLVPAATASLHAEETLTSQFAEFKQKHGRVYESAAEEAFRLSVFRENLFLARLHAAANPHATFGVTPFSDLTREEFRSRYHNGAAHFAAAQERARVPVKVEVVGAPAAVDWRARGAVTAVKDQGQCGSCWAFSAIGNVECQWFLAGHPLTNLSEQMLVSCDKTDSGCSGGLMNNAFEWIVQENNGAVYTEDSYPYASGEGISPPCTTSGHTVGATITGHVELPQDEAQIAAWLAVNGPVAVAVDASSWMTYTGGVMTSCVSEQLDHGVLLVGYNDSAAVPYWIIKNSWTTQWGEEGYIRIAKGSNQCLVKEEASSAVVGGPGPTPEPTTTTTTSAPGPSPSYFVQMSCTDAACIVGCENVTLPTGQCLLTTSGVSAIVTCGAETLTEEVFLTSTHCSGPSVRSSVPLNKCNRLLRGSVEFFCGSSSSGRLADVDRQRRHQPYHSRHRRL

SMILES | CC50 [1] | pEC50 [2] | pIC50 [3]
COC1=CC(=O)N(C(=O)/C=C/[C@H](C)NC(=O)[C@H](CC(C)C)NC(=O)[C@H](CC(C)C)NC(=O)[C@H](C(C)C)N(C)C)[C@H]1Cc1c[nH]c2ccccc12 | > 600 nM | – | –
COC1=CC(=O)N(C(=O)/C=C/[C@H](C)NC(=O)[C@H](CC(C)C)NC(=O)[C@H](CC(C)C)NC(=O)C2CCN(C)CC2)[C@H]1Cc1c[nH]c2ccccc12 | > 600 nM | – | –
COC1=CC(=O)N(C(=O)/C=C/[C@H](C)NC(=O)[C@H](CC(C)C)NC(=O)[C@H](CC2CCCCC2)NC(=O)C2CCN(C)CC2)[C@H]1Cc1c[nH]c2ccccc12 | > 600 nM | – | –
COC1=CC(=O)N(C(=O)/C=C/[C@H](C)NC(=O)[C@H](CC2CCCCC2)NC(=O)[C@H](CC(C)C)NC(=O)C2CCN(C)CC2)[C@H]1Cc1c[nH]c2ccccc12 | > 600 nM | – | –
COC1=CC(=O)N(C(=O)/C=C/[C@H](C)NC(=O)[C@H](CC2CCCCC2)NC(=O)[C@H](CC2CCCCC2)NC(=O)C2CCN(C)CC2)[C@H]1Cc1c[nH]c2ccccc12 | > 600 nM | – | –
COC1=CC(=O)N(C(=O)/C=C/[C@H](C)NC(=O)[C@H](CC(C)C)NC(=O)[C@H](Cc2ccccc2)NC(=O)[C@H](C(C)C)N(C)C)[C@H]1Cc1c[nH]c2ccccc12 | > 600 nM | – | –
COC1=CC(=O)N(C(=O)/C=C/[C@H](C)NC(=O)[C@H](CCc2ccccc2)NC(=O)[C@H](CC(C)C)NC(=O)[C@H](C(C)C)N(C)C)[C@H]1Cc1c[nH]c2ccccc12 | > 600 nM | – | –
COC1=CC(=O)N(C(=O)/C=C/[C@H](C)NC(=O)[C@H](CC(C)C)NC(=O)[C@H](CC2CCCCC2)NC(=O)[C@H](C(C)C)N(C)C)[C@H]1Cc1c[nH]c2ccccc12 | > 600 nM | – | –
COC1=CC(=O)N(C(=O)/C=C/[C@H](CCc2ccccc2)NC(=O)[C@H](CC(C)C)NC(=O)[C@H](CC(C)C)NC(=O)[C@H](C(C)C)N(C)C)[C@H]1Cc1c[nH]c2ccccc12 | > 600 nM | – | –
COC1=CC(=O)N(C(=O)/C=C/[C@H](C)NC(=O)[C@H](CC2CCCCC2)NC(=O)[C@H](CC(C)C)NC(=O)[C@H](C(C)C)N(C)C)[C@H]1Cc1c[nH]c2ccccc12 | > 600 nM | – | –
COC1=CC(=O)N(C(=O)/C=C/[C@H](C)NC(=O)[C@H](CC2CCCCC2)NC(=O)[C@H](CC2CCCCC2)NC(=O)[C@H](C(C)C)N(C)C)[C@H]1Cc1c[nH]c2ccccc12 | > 600 nM | – | –
COC1=CC(=O)N(C(=O)/C=C/[C@@H](NC(=O)[C@H](CC(C)C)NC(=O)[C@H](CC2CCCCC2)NC(=O)[C@H](C(C)C)N(C)C)C2CCCCC2)[C@H]1Cc1c[nH]c2ccccc12 | > 600 nM | – | –
COC1=CC(=O)N(C(=O)/C=C/[C@H](C)NC(=O)[C@H](CCc2ccccc2)NC(=O)[C@H](CC2CCCCC2)NC(=O)[C@H](C(C)C)N(C)C)[C@H]1Cc1c[nH]c2ccccc12 | > 600 nM | – | –
COC1=CC(=O)N(C(=O)/C=C/[C@@H](CCc2ccccc2)NC(=O)[C@H](CC(C)C)NC(=O)[C@H](CC(C)C)NC(=O)[C@H](C(C)C)N(C)C)C1Cc1ccc(-c2ccccc2)cc1 (some centres undefined) | > 600 nM | 7.89 | 9.92
COC1=CC(=O)N(C(=O)/C=C/[C@H](CCc2ccccc2)NC(=O)[C@H](CC(C)C)NC(=O)[C@H](CC(C)C)NC(=O)C2CCN(C)CC2)C1Cc1ccc(-c2ccc(C#N)cc2)cc1 (some centres undefined) | > 600 nM | 6.37 | 9.89
COC1=CC(=O)N(C(=O)/C=C/[C@@H](CCc2ccccc2)NC(=O)[C@H](CC(C)C)NC(=O)[C@H](CC(C)C)NC(=O)[C@H](C(C)C)N(C)C)C1Cc1ccc(-c2ccc(OC)cc2)cc1 (some centres undefined) | > 600 nM | 7.72 | 9.55
COC1=CC(=O)N(C(=O)/C=C/[C@H](CCc2ccccc2)NC(=O)[C@H](CC(C)C)NC(=O)[C@H](CC(C)C)NC(=O)C2CCN(C)CC2)C1Cc1ccc(-c2ccc(C(F)(F)F)cc2)cc1 (some centres undefined) | > 600 nM | 6.38 | 9.10
COC1=CC(=O)N(C(=O)/C=C/[C@H](CCc2ccccc2)NC(=O)[C@H](CC(C)C)NC(=O)[C@H](CC(C)C)NC(=O)C2CCN(C)CC2)C1Cc1ccc(-c2ccccc2)cc1 (some centres undefined) | > 600 nM | 6.65 | 9.40
COC1=CC(=O)N(C(=O)/C=C/[C@@H](CCc2ccccc2)NC(=O)[C@H](CC(C)C)NC(=O)[C@H](CC(C)C)NC(=O)[C@H](C(C)C)N(C)C)C1Cc1ccc(-c2ccc(C#N)cc2)cc1 (some centres undefined) | > 600 nM | 7.72 | 9.96
COC1=CC(=O)N(C(=O)/C=C/[C@@H](CCc2ccccc2)NC(=O)[C@H](CC(C)C)NC(=O)[C@H](CC(C)C)NC(=O)[C@H](C(C)C)N(C)C)C1Cc1ccc(-c2ccc(C(F)(F)F)cc2)cc1 (some centres undefined) | > 600 nM | 7.11 | 9.17
CCCC[C@H]1O[C@@H]1/C=C/C=O | > 600 nM | – | 7.53
COC1=CC(=O)N(C(=O)/C=C/[C@H](CCc2ccccc2)NC(=O)[C@H](CC(C)C)NC(=O)[C@H](CC(C)C)NC(=O)C2CCN(C)CC2)C1Cc1ccc(-c2ccc(OC)cc2)cc1 (some centres undefined) | > 600 nM | 6.58 | 9.59
COC1=CC(=O)N(C(=O)/C=C/[C@H](CCc2ccccc2)NC(=O)[C@H](CC(C)C)NC(=O)[C@H](CC(C)C)NC(=O)C2CCN(C)CC2)C1Cc1ccc(-c2ccc3ccccc3c2)cc1 (some centres undefined) | > 600 nM | 6.28 | 8.81
COC1=CC(=O)N(C(=O)/C=C/[C@@H](CCc2ccccc2)NC(=O)[C@H](CC(C)C)NC(=O)[C@H](CC(C)C)NC(=O)[C@H](C(C)C)N(C)C)C1Cc1ccc(-c2ccc3ccccc3c2)cc1 (some centres undefined) | > 600 nM | 7.23 | 9.16
O=C(Cn1ccnc1[N+](=O)[O-])NCc1ccccc1 [BENZNIDAZOLE] | > 600 nM | 5.72 | –
CC[C@H](C)[C@@H](C(=O)O[C@@H](CC(C)C)C(=O)N[C@@H](CC(C)C)C(=O)N[C@@H](C)/C=C/C(=O)N1C(=O)C=C(OC)[C@@H]1C)N(C)C [GALLINAMIDE A] | > 600 nM | – | 8.89
